Article PMC3713777 (Bioorganic & medicinal chemistry, 2010)
pKi: −log10 of the molar value.

Columns and labels:
[1] = molecular target: serotonin transporter (SERT) (Rattus norvegicus, UniProt P31652); experiment: [3H]citalopram binding assay; conditions: ratio of Ki values measured in this paper
SERT = SERT binding, inhibition of [3H]paroxetine; conditions: ratio of Ki values taken from reference 21
NET = conditions: read-out: NET (Ki); value taken from the literature; cited from earlier work

Chain of serotonin transporter (SERT) (P31652 whole entry): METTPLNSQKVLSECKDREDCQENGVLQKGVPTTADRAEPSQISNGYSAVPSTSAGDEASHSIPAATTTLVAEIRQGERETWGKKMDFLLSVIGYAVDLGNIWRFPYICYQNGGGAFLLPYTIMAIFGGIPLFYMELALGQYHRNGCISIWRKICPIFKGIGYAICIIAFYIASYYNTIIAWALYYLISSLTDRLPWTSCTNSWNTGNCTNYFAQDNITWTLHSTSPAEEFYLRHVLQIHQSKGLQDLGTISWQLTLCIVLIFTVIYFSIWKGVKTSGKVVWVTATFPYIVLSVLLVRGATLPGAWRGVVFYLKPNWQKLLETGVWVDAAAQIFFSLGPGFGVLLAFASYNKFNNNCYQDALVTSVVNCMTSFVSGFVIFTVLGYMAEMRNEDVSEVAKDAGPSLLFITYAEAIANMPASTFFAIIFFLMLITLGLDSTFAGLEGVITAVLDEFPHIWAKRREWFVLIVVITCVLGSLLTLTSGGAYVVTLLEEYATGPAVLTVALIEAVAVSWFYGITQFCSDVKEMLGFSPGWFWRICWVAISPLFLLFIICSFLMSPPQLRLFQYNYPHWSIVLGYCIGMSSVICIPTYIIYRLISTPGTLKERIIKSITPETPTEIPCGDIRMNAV

SMILES	DAT/SERT [1]	NET/SERT (SERT)	further results
Cl.O=C(OCc1ccccc1)C1(c2ccc(Cl)c(Cl)c2)CCNCC1 [Compound 12a, Benzyl 4-(3,4-dichlorophenyl) piperidine-4-carboxylate]	100	–	–
CN1CCC(C(=O)OCc2ccc(Cl)c(Cl)c2)(c2ccc(Cl)c(Cl)c2)CC1.Cl [Compound 8d, 3,4-Dichlorobenzyl 4-(3,4-dichlorophenyl)-1-methylpiperidine-4-carboxylate]	1,200	–	–
CCOC(=O)C1(c2ccc(Cl)c(Cl)c2)CCN(C)CC1.Cl [Compound 2a]	–	4,000	pKi (NET): 4.13
CCOC(=O)C1(c2ccc3ccccc3c2)CCN(C)CC1.Cl [Compound 2d]	–	9,900	–
CCOC(=O)C1(c2ccc(I)cc2)CCN(C)CC1.Cl [Compound 2c]	–	25,000	–
CCOC(=O)C1(c2ccc(I)cc2)CCNCC1.Cl [Compound 4c, Ethyl 4-(4-iodophenyl)-piperidine-4-carboxylate]	1,400	–	–
O=C(O)C(=O)O.O=C(OCc1ccc(Cl)c(Cl)c1)C1(c2ccc(I)cc2)CCNCC1 [Compound 14c, 3,4-Dichlorobenzyl 4-(4-iodophenyl) piperidine-4-carboxylate]	–	–	NET/SERT [1]: 1,000
